Source: patent US20170000775A1, “PHARMACEUTICAL COMPOSITIONS COMPRISING ANTIBACTERIAL AGENTS” (priority 2014, published 2017)
Where a name gives a salt, the structure may show the parent alone.

What was measured:
[1] = tested on: A. baumannii NCTC 13302 producing CHDL oxacillinase [OXA-25] beta-lactamase enzymes; experiment: Time kill study against A. baumannii NCTC 13302; format: cell-based, Acinetobacter baumannii; conditions: sulbactam 8 mcg/ml, sodium salt of Formula (I) 4 mcg/ml, imipenem 16 mcg/ml; for Bacterial count, 0 hour: 0 hour (initial inoculum); for Bacterial count, 0 hour / Bacterial count, 2 hour / Bacterial count, 4 hour / Bacterial count, 6 hour / Bacterial count, 8 hour: alone or combined as labelled; for Effect on bacterial count (in words): throughout the duration of the study
Description: (§1) In a typical time kill study, the freshly grown cultures were diluted to the required cell density (initial starting inoculum) in Cation adjusted Muller Hinton broth medium (BD, USA). The antibacterial agents (either alone or in combination) at the required concentrations were added into the culture-containing medium. The samples were incubated under shaking condition (120 rpm) at 37° C. Enumeration of viable bacterial count was done every 2 hour by diluting in normal saline and plating on to the Tryptic Soya Agar plates (BD, USA). The plates were incubated for 24 hours to arrive at the viable bacterial count. […] In general, the decrease of 1 Log CFU/ml, corresponds to 90% killing of bacteria. Similarly, 2 Log CFU/ml reductions indicates to 99% killing of bacteria and 3 Log CFU/ml reductions is equal to 99.9% killing of bacteria.
(§2) The assay without any antibacterial agent was taken as control. The sodium salt of a compound of Formula (I), was used for antibacterial testing.

[2] = tested on: A. baumannii NCTC 13303 producing CHDL oxacillinase [OXA-26] beta-lactamase enzymes; experiment: Time kill study against A. baumannii NCTC 13303; format: cell-based, Acinetobacter baumannii; conditions: sulbactam 8 mcg/ml, sodium salt of Formula (I) 4 mcg/ml, imipenem 8 mcg/ml; for Bacterial count, 0 hour: 0 hour (initial inoculum); for Bacterial count, 0 hour / Bacterial count, 2 hour / Bacterial count, 4 hour / Bacterial count, 6 hour / Bacterial count, 8 hour: alone or combined as labelled; for Effect on bacterial count (in words): throughout the duration of the study
Description: as §1, §2

Row | Compound | Bacterial count, 0 hour [1] [Log CFU/ml] | Bacterial count, 2 hour [1] [Log CFU/ml] | Bacterial count, 4 hour [1] [Log CFU/ml] | Bacterial count, 6 hour [1] [Log CFU/ml] | Bacterial count, 8 hour [1] [Log CFU/ml] | Effect on bacterial count (in words) [1] | Bacterial count, 0 hour [2] [Log10CFU/ml] | Bacterial count, 2 hour [2] [Log10CFU/ml] | Bacterial count, 4 hour [2] [Log10CFU/ml] | Bacterial count, 6 hour [2] [Log10CFU/ml] | Bacterial count, 8 hour [2] [Log10CFU/ml] | Effect on bacterial count (in words) [2]
1 | N#C[C@@H]1CC[C@@H]2CN1C(=O)N2OS(=O)(=O)O [Sodium salt of a compound of Formula (I), sulphuric acid, mono[(1R,2S,5R)-2-cyano-7-oxo-1,6-diazabicyclo[3.2.1]oct-6-yl] ester, sodium salt (1:1)] | 6.36 | 7.8 | 8.0 | 8.1 | 8.15 | not effective to decrease the bacterial count | 6.17 | 7.6 | 7.9 | 7.95 | 8.1 | not effective to decrease the bacterial count
2 | C[C@@H](O)[C@H]1C(=O)N2C(C(=O)O)=C(SCCN=CN)C[C@H]12 [Imipenem, imipenem] | 6.36 | 7.74 | 8 | 8.32 | 8.74 |  | 6.17 | 7.84 | 8.13 | 8.26 | 8.23 | 
3 | CC1(C)[C@H](C(=O)O)N2C(=O)C[C@H]2S1(=O)=O [Sulbactam, sulbactam] | 6.36 | 6.81 | 7.4 | 7.65 | 7.31 | not effective to decrease the bacterial count | 6.17 | 7.32 | 7.56 | 7.81 | 7.81 | not effective to decrease the bacterial count
